Where two headings read alike, the source gives them in different places. Non-standard residues stand in square brackets, D forms with d. Residues, ends and D or L forms follow the SMILES beside them. *: point of attachment. X1 = O=C(C[C@H]1OC(CO)[C@H](O)[C@H](O)C1O)*; Orn = NCCC[C@H](N)C(=O)O
Columns and labels:
[1] = previously demonstrated; cited from earlier work
[2] = system: human embryonic liver cells; conditions: compared with DMSO; cited from earlier work
[3] = previously demonstrated; cited from earlier work; remark: listed apart in the source
[4] = thermal hysteresis (TH) activity and dynamic ice shaping, Clifton Nanoliter Osmometer; conditions: 0.01 mg/mL
Procedure: As both compound 4 (at 22 mM) and compound 5 (at 0.5 mM) are novel potent low molecular weight inhibitors of ice recrystallization, whether they were interacting directly with the ice lattice was investigated. Carbohydrate derivatives (compounds 3-6) were examined for TH activity using a Clifton Nanoliter Osmometer. See Tam, R. et al. (2009) “Solution Conformation of C-Linked Antifreeze Glycoprotein Analogues and Modulation of Ice Recrystallization” J. Am. Chem. Soc. 131:15747-15753; Tam, R. et al. (2008) “Hydration Index—A Better Parameter for Explaining Small Molecule Hydration in Inhibition of Ice Recrystallization” J. Am. Chem. Soc. 130: 17494-17501.
In this assay a single droplet of the sample in water was suspended in the center of an oil-filled well in a sample holder plate. The sample was then rapidly frozen using a thermoelectrically controlled microscope stage, then the temperature was raised and the sample melted until only a single ice crystal remained. Once a single ice crystal was obtained, its growth and behavior upon increasing/decreasing the temperature was viewed under a microscope.
The above synthesized C-linked AFGP analogues and carbohydrate derivatives were assessed for TH activity at 10 mg/mL. Compounds 3-6 could not be assessed for TH activity at this concentration due to their amphiphilic nature. […]

[5] = solubility and gelation in water, PBS; format: physicochemical
[6] = splat cooling ice recrystallization inhibition (IRI) assay; conditions: 0.5 mM
Procedure: In this assay, the area of ice crystals are measured after a 30 minute annealing time at −6.4° C. and compared to a positive control for ice recrystallization resulting in a quantitative measurement of the mean ice grain size. For a positive control, a phosphate buffered saline (PBS) solution was utilized. All samples were normalized to the PBS positive control. The ice recrystallization inhibition activity of the carbohydrate-based non-ionic surfactants n-octyl-β-D-glucopyranoside (compound 3) and n-octyl-β-D-galactopyranoside (compound 4) is shown in FIG. 1.
In this assay, the area of ice crystals are measured after a 30 minute annealing time at −6.4° C. and compared to a positive control for ice recrystallization resulting in a quantitative measurement of the mean ice grain size. For a positive control, a PBS solution was utilized. All samples were normalized to the PBS positive control.
N-aryl-D-gluconamides (3a), (2a), (4a), and (1b) are a class of low molecular weight carbohydrate-based compounds. The ice recrystallization inhibition activity of (3a), (2a), (4a), and (1b) was assessed using a “splat cooling” assay. In this assay, the area of ice crystals are measured after a 30 minutes annealing time at −6.4° C. and compared to a positive control for ice recrystallization resulting in a quantitative measurement of the mean ice grain size. For a positive control, PBS was utilized. All samples were normalized to the PBS positive control.

SMILES: N[C@@H](CCCNC(=O)C[C@H]1OC(CO)[C@H](O)[C@H](O)C1O)C(=O)NCC(=O)NCC(=O)N[C@@H](CCCNC(=O)C[C@H]1OC(CO)[C@H](O)[C@H](O)C1O)C(=O)NCC(=O)NCC(=O)N[C@@H](CCCNC(=O)C[C@H]1OC(CO)[C@H](O)[C@H](O)C1O)C(=O)NCC(=O)NCC(=O)N[C@@H](CCCNC(=O)C[C@H]1OC(CO)[C@H](O)[C@H](O)C1O)C(=O)NCC(=O)NCC(=O)NCC(=O)O (some centres unmarked) [analog 1] (H-[Orn](X1)GG[Orn](X1)GG[Orn](X1)GG[Orn](X1)GGG-OH)
- TH activity [1]: do not exhibit TH activity
- cryoprotective ability [2]: as effective as a 2.5% solution of DMSO
- ice recrystallization inhibition activity [3]: potent inhibitors of ice recrystallization

SMILES: N[C@@H](CC[C@H]1OC(CO)[C@H](O)[C@H](O)C1O)C(=O)NCC(=O)NCC(=O)N[C@@H](CC[C@H]1OC(CO)[C@H](O)[C@H](O)C1O)C(=O)NCC(=O)NCC(=O)N[C@@H](CC[C@H]1OC(CO)[C@H](O)[C@H](O)C1O)C(=O)NCC(=O)NCC(=O)N[C@@H](CC[C@H]1OC(CO)[C@H](O)[C@H](O)C1O)C(=O)NCC(=O)NCC(=O)NCC(=O)O (some centres unmarked) [analog 2]
- TH activity [1]: do not exhibit TH activity
- ice recrystallization inhibition activity [3]: potent inhibitors of ice recrystallization

SMILES: CCCCCCCCNC(=O)[C@H](O)[C@@H](O)[C@H](O)[C@H](O)CO [compound 5, N-octyl-D-gluconamide]
- dynamic ice shaping [4]: do not exhibit this activity
- solubility [5]: poor solubilities
- ice recrystallization inhibition activity [6]: potent

SMILES: CCCCCCCCNC(=O)[C@H](O)[C@@H](O)[C@@H](O)[C@H](O)CO [compound 6, N-octyl-D-galactonamide]
- dynamic ice shaping [4]: do not exhibit this activity
- solubility [5]: poor solubilities
- ice recrystallization inhibition activity [6]: only moderate

From patent US10004222B2, “Small molecule ice recrystallization inhibitors and methods of use thereof” (THE UNIVERSITY OF OTTAWA, priority 2012, dated 2018)
